Experimental data: ChEMBL document CHEMBL4406882, “The plant-derived chalcone Xanthoangelol targets the membrane of Gram-positive bacteria” (Bioorg Med Chem, 2019)
≈ marks a conversion by molar mass, not a printed value. Calls of active or inactive are those of the source. No cut-off for these calls is given here.

Key:
Staphylococcus aureus [1] = test: Antibacterial activity against Staphylococcus aureus ATCC 25923 by broth micro dilution method; format: functional
Staphylococcus aureus [2] = test: Antibacterial activity against methicillin-resistant Staphylococcus aureus ATCC 700699 by broth micro dilution method; format: functional
Enterococcus faecalis [3] = test: Antibacterial activity against Enterococcus faecalis ATCC 29212 by broth micro dilution method; format: functional
Enterococcus faecalis [4] = test: Antibacterial activity against vancomycin-resistant Enterococcus faecalis ATCC 51299 by broth micro dilution method; format: functional
Enterococcus faecalis [5] = test: Antibacterial activity against Enterococcus faecalis ATCC 35667 by broth micro dilution method; format: functional
Enterococcus faecalis [6] = test: Antibacterial activity against vancomycin-resistant Enterococcus faecalis ATCC 700221 by broth micro dilution method; format: functional
Bacillus subtilis [7] = test: Antibacterial activity against Bacillus subtilis 168 by broth micro dilution method; format: functional
Acinetobacter baumannii [8] = test: Antibacterial activity against Acinetobacter baumannii ATCC BAA-747 by broth micro dilution method; format: functional
Acinetobacter baumannii [9] = test: Antibacterial activity against multidrug-resistant Acinetobacter baumannii ATCC BAA-1605 by broth micro dilution method; format: functional
Pseudomonas aeruginosa = test: Antibacterial activity against Pseudomonas aeruginosa ATCC 27853 by broth micro dilution method; format: functional
Staphylococcus aureus [10] = test: Antibacterial activity against methicillin-resistant Staphylococcus aureus ATCC 700699 assessed as delay in growth at 1.56 uM measured for 6 hrs; format: functional, organism-based
Staphylococcus aureus [11] = test: Antibacterial activity against methicillin-resistant Staphylococcus aureus ATCC 700699 assessed as delay in growth at 6.25 uM measured for 24 hrs relative to control; format: functional
Staphylococcus aureus [12] = test: Antibacterial activity against mid-exponential growth phase of methicillin-resistant Staphylococcus aureus ATCC 700699 assessed as increase in cell lysis at 12.5 to 25 uM; format: functional, organism-based
Staphylococcus aureus [13] = test: Bactericidal activity against methicillin-resistant Staphylococcus aureus ATCC 700699 assessed as reduction in bacterial CFU at 4 times MIC measured for 30 mins; format: functional
[14] = (§1) Cytotoxicity against human THP1 cells assessed as reduction in cell viability incubated for 48 hrs by resazurin reagent based assay; parameters: species or system THP-1; conditions: human, THP1 cells
THP-1 = test: as §1; conditions: Homo sapiens, THP-1, 48 h
[15] = (§2) Cytotoxicity against human MRC5 cells assessed as reduction in cell viability incubated for 48 hrs by resazurin reagent based assay; conditions: human, MRC5 cells
MRC5 = test: as §2; conditions: Homo sapiens, MRC5, 48 h
[16] = (§3) Cytotoxicity against human HEK293 cells assessed as reduction in cell viability incubated for 48 hrs by resazurin reagent based assay; conditions: human, HEK293 cells
HEK293 = test: as §3; conditions: Homo sapiens, HEK293, 48 h
[17] = (§4) Cytotoxicity against human HepG2 cells assessed as reduction in cell viability incubated for 48 hrs by resazurin reagent based assay; conditions: human, HepG2 cells
HepG2 = test: as §4; conditions: Homo sapiens, HepG2, 48 h
[18] = Cytotoxicity against human CLS54 cells assessed as reduction in cell viability incubated for 48 hrs by resazurin reagent based assay
[19] = Selectivity index, ratio of IC50 for human THP1 cells to MIC90 for methicillin-resistant Staphylococcus aureus ATCC 700699; format: toxicity; conditions: read-out: Selectivity Index
[20] = Selectivity index, ratio of IC50 for human MRC5 cells to MIC90 for methicillin-resistant Staphylococcus aureus ATCC 700699; format: toxicity; conditions: read-out: Selectivity Index
[21] = Selectivity index, ratio of IC50 for human HEK293 cells to MIC90 for methicillin-resistant Staphylococcus aureus ATCC 700699; format: toxicity; conditions: read-out: Selectivity Index
[22] = Selectivity index, ratio of IC50 for human HepG2 cells to MIC90 for methicillin-resistant Staphylococcus aureus ATCC 700699; format: toxicity; conditions: read-out: Selectivity Index
[23] = Selectivity index, ratio of IC50 for human CLS54 cells to MIC90 for methicillin-resistant Staphylococcus aureus ATCC 700699; format: toxicity; conditions: read-out: Selectivity Index
Staphylococcus aureus [24] = test: Induction of membrane integrity impairment in methicillin-resistant Staphylococcus aureus ATCC 700699 at 0.5 to 4 times MIC measured for 30 mins by DiOC2(3) probe based fluorescence assay; format: functional, organism-based
Staphylococcus aureus [25] = test: Induction of membrane integrity impairment in methicillin resistant Staphylococcus aureus Mu50 assessed as increase in release of ATP at 1 to 16 times MIC incubated for 1 hr by BacTiter-Glo Assay; format: functional, organism-based
Staphylococcus aureus [26] = test: Induction of membrane integrity impairment in methicillin resistant Staphylococcus aureus Mu50 harboring GFP reporter plasmid assessed as increase in release of GFP at 1 to 16 times MIC incubated for 3 to 6 hrs by […]; format: functional, organism-based
Staphylococcus aureus [27] = test: Induction of membrane integrity impairment in methicillin-resistant Staphylococcus aureus ATCC 700699 at 12.5 to 25 uM measured for 3 hrs by PI staining based fluorescence assay; format: functional, organism-based
Erythrocyte = test: Hemolytic activity against human erythrocytes at =>100 uM measured up to 24 hrs; format: ADME, cell-based
Bacillus subtilis [28] = test: Induction of LiaH.1 protein expression in Bacillus subtilis 168 at 2.3 uM incubated for 15 mins by 35S-methionine pulse labeling based 2D-PAGE analysis; format: functional, organism-based
Bacillus subtilis [29] = test: Induction of GroEL.3 protein expression in Bacillus subtilis 168 at 2.3 uM incubated for 15 mins by 35S-methionine pulse labeling based 2D-PAGE analysis; format: functional, organism-based
Bacillus subtilis [30] = test: Induction of LiaH.2 protein expression in Bacillus subtilis 168 at 2.3 uM incubated for 15 mins by 35S-methionine pulse labeling based 2D-PAGE analysis; format: functional, organism-based

CC(C)=CCC/C(C)=C/Cc1c(O)ccc(C(=O)/C=C/c2ccc(O)cc2)c1O [XANTHOANGELOL]
MIC (Staphylococcus aureus [1]): 6.25 µM (≈ 2.45 µg/mL)
MIC (Staphylococcus aureus [2]): 3.12 µM (≈ 1.23 µg/mL)
MIC50 (Staphylococcus aureus [2]): 0.96 µM (≈ 0.377 µg/mL)
MIC90 (Staphylococcus aureus [2]): 1.33 µM (≈ 0.522 µg/mL)
MIC (Enterococcus faecalis [3]): 12.5 µM (≈ 4.91 µg/mL)
MIC (Enterococcus faecalis [4]): 6.25 µM (≈ 2.45 µg/mL)
MIC (Enterococcus faecalis [5]): 12.5 µM (≈ 4.91 µg/mL)
MIC (Enterococcus faecalis [6]): 3.12 µM (≈ 1.23 µg/mL)
MIC (Bacillus subtilis [7]): 3.12 µM (≈ 1.23 µg/mL)
MIC (Acinetobacter baumannii [8]): > 100 µM
MIC (Acinetobacter baumannii [9]): > 100 µM
MIC (Pseudomonas aeruginosa): > 100 µM
Activity (Staphylococcus aureus [10]): Active
Activity (Staphylococcus aureus [11]): 100%
Activity (Staphylococcus aureus [12]): Active
Activity (Staphylococcus aureus [13]): <20 CFU/ml
IC90 at 48 h [14]: 39.1 µM
IC50 (THP-1): 23.6 µM
IC90 at 48 h [15]: 27.6 µM
IC50 (MRC5): 21.7 µM
IC90 at 48 h [16]: 44.8 µM
IC50 (HEK293): 21.5 µM
IC90 at 48 h [17]: 37.4 µM
IC50 (HepG2): 13.7 µM
IC50 ([18]; Homo sapiens, 48 h): 58.8 µM
IC90 at 48 h ([18]; human, CLS54 cells): 85.8 µM
selectivity ratio [19]: 17.7
selectivity ratio [20]: 16.3
selectivity ratio [21]: 16.2
selectivity ratio [22]: 10.3
selectivity ratio [23]: 44.2
Activity (Staphylococcus aureus [24]): Active
Activity (Staphylococcus aureus [25]): Active
Activity (Staphylococcus aureus [26]): Active
Activity (Staphylococcus aureus [27]): Active
Activity (Erythrocyte): Toxic
Activity (Bacillus subtilis [28]): Active
Activity (Bacillus subtilis [29]): Active
Activity (Bacillus subtilis [30]): Active
